Numbers after ± are expanded uncertainties.
Tests used:
[1] = refractive index (Na D-line) (dimensionless); conditions: 101.33 kPa, Liquid, Standard Abbe refractometry
[2] = for surface tension liquid-gas: Maximal bubble pressure; for mass density: 101.33 kPa, Liquid, Vibrating tube method

CCOCCn1cc[n+](C)c1.[Br-] [1-(2-ethoxyethyl)-3-methylimidazolium bromide]
Conditions | mass density, [2] [kg/m3] | refractive index, [1] | surface tension liquid-gas, [2] [mN/m]
288.15 K | 1360.32 ± 2.4 | 1.5473 ± 0.0031 | 50.9 ± 0.5
293.15 K | 1356.56 ± 2.4 | 1.5458 ± 0.0031 | 50.5 ± 0.5
298.15 K | 1352.79 ± 2.4 | 1.5441 ± 0.0031 | 50.2 ± 0.5
303.15 K | 1349.05 ± 2.4 | 1.5426 ± 0.0031 | 49.8 ± 0.5
308.15 K | 1345.33 ± 2.4 | 1.5409 ± 0.0031 | 49.5 ± 0.5
313.15 K | 1341.63 ± 2.4 | 1.5391 ± 0.0031 | 49.2 ± 0.5
318.15 K | 1337.99 ± 2.4 | 1.5376 ± 0.0031 | 48.9 ± 0.5
323.15 K | 1334.35 ± 2.4 | 1.5357 ± 0.0031 | 48.6 ± 0.5
328.15 K | 1330.24 ± 2.4 | 1.5341 ± 0.0031 | 48.3 ± 0.5

CCOCCn1cc[n+](C)c1.[Cl-] [1-(2-ethoxyethyl)-3-methylimidazolium chloride]
Conditions | mass density, [2] [kg/m3] | refractive index, [1] | surface tension liquid-gas, [2] [mN/m]
288.15 K | 1143.13 ± 2.3 | 1.5269 ± 0.0031 | 47.8 ± 0.5
293.15 K | 1139.98 ± 2.3 | 1.5255 ± 0.0031 | 47.3 ± 0.5
298.15 K | 1136.83 ± 2.3 | 1.524 ± 0.0031 | 46.9 ± 0.5
303.15 K | 1133.69 ± 2.3 | 1.5225 ± 0.0031 | 46.5 ± 0.5
308.15 K | 1130.57 ± 2.3 | 1.5206 ± 0.0031 | 46 ± 0.5
313.15 K | 1127.45 ± 2.3 | 1.5184 ± 0.0031 | 45.6 ± 0.5
318.15 K | 1124.37 ± 2.3 | 1.5159 ± 0.0031 | 45.2 ± 0.5
323.15 K | 1121.28 ± 2.3 | 1.5142 ± 0.0031 | 44.8 ± 0.5
328.15 K | 1118.21 ± 2.3 | 1.5119 ± 0.0031 | 44.3 ± 0.5

COCCn1cc[n+](C)c1.[Cl-] [1-(2-methoxyethyl)-3-methylimidazolium chloride]
Conditions | mass density, [2] [kg/m3] | refractive index, [1] | surface tension liquid-gas, [2] [mN/m]
288.15 K | 1168.6 ± 2.3 | 1.5201 ± 0.0031 | 49.6 ± 0.5
293.15 K | 1165.46 ± 2.3 | 1.5185 ± 0.0031 | 49.2 ± 0.5
298.15 K | 1162.31 ± 2.3 | 1.516 ± 0.0031 | 48.7 ± 0.5
303.15 K | 1159.17 ± 2.3 | 1.5142 ± 0.0031 | 48.4 ± 0.5
308.15 K | 1156.04 ± 2.3 | 1.5121 ± 0.0031 | 48 ± 0.5
313.15 K | 1152.91 ± 2.3 | 1.5103 ± 0.0031 | 47.6 ± 0.5
318.15 K | 1149.78 ± 2.3 | 1.5083 ± 0.0031 | 47.1 ± 0.5
323.15 K | 1146.63 ± 2.3 | 1.5069 ± 0.0031 | 46.7 ± 0.5
328.15 K | 1143.27 ± 2.3 | 1.5046 ± 0.0031 | 46.2 ± 0.5
